ChEMBL document CHEMBL4270521, “Design, synthesis and biological evaluation of a series of novel 2-benzamide-4-(6-oxy-N-methyl-1-naphthamide)-pyridine derivatives as potent fibroblast growth factor receptor (FGFR) inhibitors” (Eur J Med Chem, 2018)

Assays:
[1] = target: Fibroblast growth factor receptor 1 (Homo sapiens, UniProt P11362); experiment: Inhibition of recombinant FGFR1 (unknown origin) using poly (Glu, Tyr) 4:1 as substrate after 60 mins by ELISA based spectrophotometric method
KG-1 = experiment: Antiproliferative activity against human KG1 cells expressing FGFR1 after 72 hrs; format: functional, cell-based; conditions: KG-1, 72 h
[2] = target: T1, Fibroblast growth factor receptor 3 (Homo sapiens, UniProt P22607); experiment: Inhibition of FGFR3 (unknown origin)
T1 sequence (P22607 whole entry): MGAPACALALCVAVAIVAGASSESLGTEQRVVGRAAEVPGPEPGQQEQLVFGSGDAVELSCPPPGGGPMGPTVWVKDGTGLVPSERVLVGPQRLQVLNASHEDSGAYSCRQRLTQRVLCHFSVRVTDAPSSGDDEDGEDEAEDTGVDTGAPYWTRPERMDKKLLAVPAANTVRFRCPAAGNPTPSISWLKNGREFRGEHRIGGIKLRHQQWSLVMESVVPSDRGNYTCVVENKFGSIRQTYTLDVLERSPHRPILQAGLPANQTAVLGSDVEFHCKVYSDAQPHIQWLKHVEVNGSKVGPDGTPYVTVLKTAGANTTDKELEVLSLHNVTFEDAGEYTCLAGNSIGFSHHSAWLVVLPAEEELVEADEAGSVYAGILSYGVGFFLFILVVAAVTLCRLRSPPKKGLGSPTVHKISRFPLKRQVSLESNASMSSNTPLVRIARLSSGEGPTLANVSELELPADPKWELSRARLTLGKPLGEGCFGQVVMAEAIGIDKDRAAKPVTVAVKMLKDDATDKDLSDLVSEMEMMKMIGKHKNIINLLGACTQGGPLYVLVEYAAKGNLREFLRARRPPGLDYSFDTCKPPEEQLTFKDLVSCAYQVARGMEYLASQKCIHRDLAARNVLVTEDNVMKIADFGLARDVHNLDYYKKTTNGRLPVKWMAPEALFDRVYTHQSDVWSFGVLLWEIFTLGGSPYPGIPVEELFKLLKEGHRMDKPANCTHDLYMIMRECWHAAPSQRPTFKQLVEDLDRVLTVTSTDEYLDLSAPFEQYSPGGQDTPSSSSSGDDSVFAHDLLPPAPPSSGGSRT

SNU-16 [3] = conditions: Homo sapiens
Description: Antitumor activity against human SNU16 cells xenografted in nude mouse assessed as tumor growth inhibition administered ip qd for 21 consecutive days and measured twice per week

[4] = AUCinfinity in Sprague-Dawley rat at 3 mg/kg, po administered via gavage by LC-MS/MS analysis; format: ADME, organism-based; design: dose 3 mg/kg, time infinity, route oral; conditions: in vivo
RT-112 = experiment: Antiproliferative activity against human RT112 cells expressing FGFR3 after 72 hrs; format: functional, cell-based; conditions: RT-112, 72 h
[5] = AUClast in Sprague-Dawley rat at 1 mg/kg, iv by LC-MS/MS analysis; format: ADME, organism-based; design: dose 1 mg/kg, time 0 - last, route intravenous; conditions: in vivo
[6] = AUClast in Sprague-Dawley rat at 3 mg/kg, po administered via gavage by LC-MS/MS analysis; format: ADME, organism-based; design: dose 3 mg/kg, time 0 - last, route oral; conditions: in vivo
[7] = Oral bioavailability in Sprague-Dawley rat at 3 mg/kg administered via gavage by LC-MS/MS analysis; format: ADME, organism-based; conditions: in vivo
[8] = Half life in Sprague-Dawley rat at 3 mg/kg, po administered via gavage by LC-MS/MS analysis; format: ADME, organism-based; conditions: in vivo
[9] = Antiproliferative activity against human UM-UC-14 cells expressing FGFR3 after 72 hrs; format: functional, cell-based; conditions: UMUC14, 72 h
NCI-H1581 = experiment: Antiproliferative activity against human NCI-H1581 cells expressing FGFR1 after 72 hrs; format: functional, cell-based; conditions: NCI-H1581, 72 h
SNU-16 [10] = experiment: Antiproliferative activity against human SNU16 cells expressing FGFR2 after 72 hrs; format: functional, cell-based; conditions: SNU-16, 72 h
[11] = AUCinfinity in Sprague-Dawley rat at 1 mg/kg, iv by LC-MS/MS analysis; format: ADME, organism-based; design: dose 1 mg/kg, route intravenous, time infinity; conditions: in vivo
[12] = target: Vascular endothelial growth factor receptor 2 (Homo sapiens, UniProt P35968); experiment: Inhibition of recombinant VEGFR2 (unknown origin) using poly (Glu, Tyr) 4:1 as substrate after 60 mins by ELISA based spectrophotometric method
Vascular endothelial growth factor receptor 2, sequence (P35968 whole entry): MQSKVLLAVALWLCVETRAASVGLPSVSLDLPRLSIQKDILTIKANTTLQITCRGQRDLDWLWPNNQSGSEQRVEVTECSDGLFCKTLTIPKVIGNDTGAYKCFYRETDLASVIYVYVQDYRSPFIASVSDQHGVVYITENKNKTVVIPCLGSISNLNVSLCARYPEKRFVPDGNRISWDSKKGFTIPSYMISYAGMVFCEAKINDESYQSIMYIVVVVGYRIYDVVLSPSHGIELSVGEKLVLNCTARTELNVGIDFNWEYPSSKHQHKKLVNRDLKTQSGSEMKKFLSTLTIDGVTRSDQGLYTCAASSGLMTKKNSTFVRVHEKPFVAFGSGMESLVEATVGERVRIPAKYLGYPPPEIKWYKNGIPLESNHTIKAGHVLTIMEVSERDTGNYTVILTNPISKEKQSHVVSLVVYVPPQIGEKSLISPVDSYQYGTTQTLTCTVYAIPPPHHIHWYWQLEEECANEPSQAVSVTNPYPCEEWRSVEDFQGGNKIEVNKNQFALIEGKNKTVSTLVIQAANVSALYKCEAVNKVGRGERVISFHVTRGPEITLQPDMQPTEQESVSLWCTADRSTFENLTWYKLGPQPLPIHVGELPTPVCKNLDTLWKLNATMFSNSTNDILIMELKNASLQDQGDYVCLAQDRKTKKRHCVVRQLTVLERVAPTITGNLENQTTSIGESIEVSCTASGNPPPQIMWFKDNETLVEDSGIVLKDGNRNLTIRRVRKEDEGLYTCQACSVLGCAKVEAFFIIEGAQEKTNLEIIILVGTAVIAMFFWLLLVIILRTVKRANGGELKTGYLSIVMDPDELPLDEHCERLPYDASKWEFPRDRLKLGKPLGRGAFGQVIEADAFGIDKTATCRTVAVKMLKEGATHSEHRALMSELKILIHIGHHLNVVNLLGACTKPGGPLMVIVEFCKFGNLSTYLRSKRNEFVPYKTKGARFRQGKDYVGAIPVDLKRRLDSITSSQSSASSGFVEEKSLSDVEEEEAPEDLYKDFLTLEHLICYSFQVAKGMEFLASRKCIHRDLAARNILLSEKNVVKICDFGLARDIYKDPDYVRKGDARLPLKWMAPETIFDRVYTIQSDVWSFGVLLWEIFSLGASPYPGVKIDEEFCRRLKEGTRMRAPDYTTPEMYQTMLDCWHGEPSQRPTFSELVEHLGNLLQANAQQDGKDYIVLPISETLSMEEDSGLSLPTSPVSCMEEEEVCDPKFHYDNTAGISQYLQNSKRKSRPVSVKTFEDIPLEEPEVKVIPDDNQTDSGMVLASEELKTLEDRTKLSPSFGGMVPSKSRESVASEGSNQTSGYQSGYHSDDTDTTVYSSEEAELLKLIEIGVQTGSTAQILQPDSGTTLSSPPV

[13] = Volume of distribution at steady state in Sprague-Dawley rat at 1 mg/kg, iv by LC-MS/MS analysis; format: ADME, organism-based; conditions: in vivo, read-out: Vdss
[14] = Half life in Sprague-Dawley rat at 1 mg/kg, iv by LC-MS/MS analysis; format: ADME, organism-based; conditions: in vivo
[15] = Clearance in Sprague-Dawley rat at 1 mg/kg, iv by LC-MS/MS analysis; format: ADME, organism-based; conditions: in vivo
[16] = target: Fibroblast growth factor receptor 2 (Homo sapiens, UniProt P21802); experiment: Inhibition of recombinant FGFR2 (unknown origin) using poly (Glu, Tyr) 4:1 as substrate after 60 mins by ELISA based spectrophotometric method
Fibroblast growth factor receptor 2, sequence (P21802 whole entry): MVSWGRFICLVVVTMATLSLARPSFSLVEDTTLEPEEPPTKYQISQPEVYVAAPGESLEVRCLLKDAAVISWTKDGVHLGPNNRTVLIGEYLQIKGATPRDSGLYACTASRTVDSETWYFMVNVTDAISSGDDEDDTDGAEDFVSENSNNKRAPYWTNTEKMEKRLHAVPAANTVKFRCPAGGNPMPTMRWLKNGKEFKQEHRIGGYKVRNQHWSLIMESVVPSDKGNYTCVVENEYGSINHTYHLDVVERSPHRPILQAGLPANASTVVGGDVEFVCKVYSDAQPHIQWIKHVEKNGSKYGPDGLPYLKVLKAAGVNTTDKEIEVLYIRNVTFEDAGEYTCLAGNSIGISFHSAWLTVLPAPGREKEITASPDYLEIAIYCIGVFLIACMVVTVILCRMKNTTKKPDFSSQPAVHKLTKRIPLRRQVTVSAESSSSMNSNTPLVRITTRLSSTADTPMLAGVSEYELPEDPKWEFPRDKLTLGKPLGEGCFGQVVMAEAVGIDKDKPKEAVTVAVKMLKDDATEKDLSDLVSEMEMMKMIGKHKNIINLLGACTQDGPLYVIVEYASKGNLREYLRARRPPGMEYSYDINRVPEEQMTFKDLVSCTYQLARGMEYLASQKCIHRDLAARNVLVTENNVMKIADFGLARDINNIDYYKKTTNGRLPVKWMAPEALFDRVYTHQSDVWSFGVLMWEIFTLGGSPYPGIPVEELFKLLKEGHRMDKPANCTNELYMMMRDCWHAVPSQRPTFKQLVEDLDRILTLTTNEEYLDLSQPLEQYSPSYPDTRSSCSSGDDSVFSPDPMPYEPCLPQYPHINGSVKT

BaF3 = experiment: Antiproliferative activity against mouse BAF3 cells expressing VEGFR2 after 72 hrs; format: functional, cell-based; conditions: BaF3, 72 h
[17] = target: T1, Fibroblast growth factor receptor 3; experiment: Inhibition of recombinant FGFR3 (unknown origin) using poly (Glu, Tyr) 4:1 as substrate after 60 mins by ELISA based spectrophotometric method
[18] = Aqueous solubility of the compound; format: physicochemical; conditions: buffer
SNU-16 [19] = experiment: Antitumor activity against human SNU16 cells xenografted in nude mouse assessed as tumor growth inhibition at 10 mg/kg, ip qd administered for 21 consecutive days and measured twice per week relative to control; format: functional; conditions: SNU-16, ip, read-out: TGI
Mus musculus = experiment: Toxicity in nude mouse xenografted with human SNU16 cells assessed as body weight loss at 10 to 50 mg/kg, ip qd administered for 21 consecutive days and measured twice per week; format: organism-based; conditions: in vivo
SNU-16 [20] = experiment: Antitumor activity against human SNU16 cells xenografted in nude mouse assessed as tumor growth inhibition at 50 mg/kg, ip qd administered for 21 consecutive days and measured twice per week relative to control; format: functional; conditions: SNU-16, ip, read-out: TGI

Fibroblast growth factor receptor 1, sequence (P11362 whole entry): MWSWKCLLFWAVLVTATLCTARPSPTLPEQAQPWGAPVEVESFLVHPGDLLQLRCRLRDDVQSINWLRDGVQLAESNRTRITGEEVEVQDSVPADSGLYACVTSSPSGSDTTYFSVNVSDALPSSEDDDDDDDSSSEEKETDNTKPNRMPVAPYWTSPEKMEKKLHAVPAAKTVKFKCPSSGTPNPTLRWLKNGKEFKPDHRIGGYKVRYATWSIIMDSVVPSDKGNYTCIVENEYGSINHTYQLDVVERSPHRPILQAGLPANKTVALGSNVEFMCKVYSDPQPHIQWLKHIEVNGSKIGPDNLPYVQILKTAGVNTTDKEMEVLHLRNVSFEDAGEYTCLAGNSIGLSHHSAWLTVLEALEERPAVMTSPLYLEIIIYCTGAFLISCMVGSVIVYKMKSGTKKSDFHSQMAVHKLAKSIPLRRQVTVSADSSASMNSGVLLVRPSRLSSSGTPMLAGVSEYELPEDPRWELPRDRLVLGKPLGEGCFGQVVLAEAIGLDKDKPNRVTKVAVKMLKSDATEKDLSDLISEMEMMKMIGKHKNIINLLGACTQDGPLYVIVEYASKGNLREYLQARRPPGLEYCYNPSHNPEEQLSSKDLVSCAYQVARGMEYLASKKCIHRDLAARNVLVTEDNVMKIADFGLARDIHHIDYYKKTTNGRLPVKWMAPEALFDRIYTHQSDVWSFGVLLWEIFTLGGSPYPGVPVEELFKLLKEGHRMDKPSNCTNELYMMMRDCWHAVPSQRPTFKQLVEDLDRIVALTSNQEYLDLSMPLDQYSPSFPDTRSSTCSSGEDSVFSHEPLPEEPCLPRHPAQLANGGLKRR

SMILES | IC50 [1] [µM] | IC50 (KG-1) [µM] | also measured
COC(=O)c1cccc2cc(Oc3ccnc(NC(=O)c4ccc(N5C[C@@H](C)N[C@@H](C)C5)cc4)c3)ccc12 | 0.0046 | 0.159 | –
CNC(=O)c1cccc2cc(Oc3ccnc4cc(OCC5(N)CC5)c(OC)cc34)ccc12 [LUCITANIB] | – | – | IC50 [2]: 0.238 µM
CNC(=O)c1cccc2cc(Oc3ccnc(NC(=O)c4ccc(OCCN5CC(F)(F)C5)cc4)c3)ccc12 | 0.0061 | < 0.0041 | –
COc1cc(CCOc2ccnc(NC(=O)c3ccc(N4C[C@@H](C)N[C@@H](C)C4)cc3)c2)cc(OC)c1 | > 1 | – | –
CNC(=O)c1cccc2cc(Oc3ccnc(NC(=O)c4ccc(N5CCNC(C)C5)cc4)c3)ccc12 (centres undefined) | 0.002 | < 0.0041 | –
CNC(=O)c1cccc2cc(Oc3ccnc(NC(=O)c4ccc(N5CCN(C)CC5)cc4)c3)ccc12 [listing 1 of 2 here] | – | – | TGI (SNU-16 [3]): Dose-dependent effect
CNC(=O)c1cccc2cc(Oc3ccnc(NC(=O)c4ccc(N5CCOCC5)cc4)c3)ccc12 | 0.0012 | 0.0093 | –
CNC(=O)c1cccc2cc(Oc3ccnc(NC(=O)c4ccc(C5CCN(CCO)CC5)cc4)c3)ccc12 | 0.0012 | < 0.0041 | –
CNC(=O)c1cccc2cc(Oc3ccnc(NC(=O)c4ccc(OCCN5CC(F)C5)cc4)c3)ccc12 | 0.0036 | 0.0051 | –
CNC(=O)c1cccc2cc(Oc3ccnc(NC(=O)c4ccc(N5C[C@@H](C)N[C@@H](C)C5)cc4)c3)ccc12 | 0.0021 | 0.0149 | –
CCNC(=O)Nc1cccc2cc(Oc3ccnc(NC(=O)c4ccc(N5C[C@@H](C)N[C@@H](C)C5)cc4)c3)ccc12 | 0.0675 | 0.504 | –
CNC(=O)c1cccc2cc(Oc3ccnc(NC(=O)c4coc(N5CCN(C)CC5)n4)c3)ccc12 | 0.0028 | – | –
COc1cc(OC)c(F)c(COc2ccc(NC(=O)c3ccc(N4C[C@@H](C)N[C@@H](C)C4)cc3)nc2)c1F | 0.0222 | 0.116 | –
CNC(=O)c1cccc2cc(Oc3ccnc(NC(=O)c4ccc(N5CCN(C)CC5)cc4)c3)ccc12 [listing 2 of 2 here] | – | < 0.0005 | AUC(0-inf) [4]: 22.7 ng·h/mL; IC50 (RT-112): 0.0526 µM; AUC(0-t) [5]: 47.9 ng·h/mL; AUC(0-t) [6]: 21.4 ng·h/mL; bioavailability [7]: 14.9%; half-life [8]: 1.85 h; IC50 [9]: 0.0017 µM; IC50 (NCI-H1581): 0.0223 µM; IC50 (SNU-16 [10]): < 0.0005 µM; AUC(0-inf) [11]: 49 ng·h/mL; IC50 [12]: 0.0029 µM; Vd [13]: 16.7 L/kg; half-life [14]: 0.897 h; clearance [15]: 346 mL/min/kg; IC50 [16]: 0.0045 µM; IC50 (BaF3): < 0.0015 µM; IC50 [17]: 0.0106 µM
CNC(=O)c1cccc2cc(Oc3ccnc(NC(=O)c4cnn(CCO)c4)c3)ccc12 | 0.0235 | 0.278 | –
CNC(=O)c1cccc2cc(Oc3ccnc(NC(=O)c4ccc(N5C[C@@H](C)N[C@@H](C)C5)cc4OC)c3)ccc12 | 0.285 | – | –
CCNC(=O)Nc1ccc(Oc2ccnc(NC(=O)c3ccc(N4C[C@@H](C)N[C@@H](C)C4)cc3)c2)c(OC)c1 | 0.0361 | 0.548 | –

SMILES | IC50 [1] [µM] | IC50 (KG-1) [µM] | also measured
CNC(=O)c1cccc2cc(Oc3ccnc(NC(=O)c4ccc(NCC5(O)CCOCC5)cc4)c3)ccc12 | 0.0062 | < 0.0041 | –
CNC(=O)c1cccc2cc(Oc3ccnc(NC(=O)c4ccc(C5CCNCC5)cc4)c3)ccc12 | 0.0016 | 0.0722 | –
CNC(=O)c1cccc2cc(Oc3ccnc(NC(=O)c4csc(N5CCN(C)CC5)n4)c3)ccc12 | 0.0076 | – | –
CNC(=O)c1cccc2cc(Oc3ccnc(NC(=O)c4cnc(N5C[C@@H](C)N[C@@H](C)C5)nc4)c3)ccc12 | 0.0102 | 0.0303 | –
CNC(=O)c1cccc2cc(Oc3ccnc(NC(=O)c4ccc(OCCN5CCCC5)cc4)c3)ccc12 | 0.0041 | < 0.0041 | –
C=CC(=O)Nc1ccc(C(=O)Nc2cc(Oc3ccc4c(C(=O)NC)cccc4c3)ccn2)cc1 | 0.0128 | 0.369 | –
CNC(=O)c1cccc2cc(Oc3ccnc(NC(=O)c4ccc(N5CCN(C)CC5)cc4)c3)ccc12.Cl.Cl | – | – | solubility [18]: Soluble; inhibition in vivo at 10 mg/kg (SNU-16 [19]): 25%; Activity (Mus musculus): Non-Toxic; inhibition in vivo at 50 mg/kg (SNU-16 [20]): 81%
COc1cc(OC)c(Cl)c(CCOc2ccnc(NC(=O)c3ccc(N4C[C@@H](C)N[C@@H](C)C4)cc3)c2)c1Cl | > 1 | – | –
CNC(=O)c1cccc2cc(Oc3ccnc(NC(=O)c4ccc(N5CC(C)OC(C)C5)cc4)c3)ccc12 (centres undefined) | 0.0019 | 0.154 | –
COc1cc(CCc2cc(NC(=O)c3ccc(N4C[C@@H](C)N[C@@H](C)C4)cc3)n[nH]2)cc(OC)c1 [FEXAGRATINIB] | – | 0.0019 to 0.0087 | IC50 (RT-112): 0.0838 µM; IC50 [9]: 0.0269 µM; IC50 (NCI-H1581): 0.04 µM; IC50 (SNU-16 [10]): 0.0062 µM; IC50 (BaF3): 0.222 µM
CC(Oc1ccc(NC(=O)c2ccc(N3C[C@@H](C)N[C@@H](C)C3)cc2)nc1)c1c(Cl)cncc1Cl (some centres undefined) | > 1 | – | –
CNC(=O)c1cccc2cc(Oc3ccnc(NC(=O)c4ccc(OCC5(N)CC5)cc4)c3)ccc12 | 0.0074 | 0.0545 | –
CNC(=O)c1cccc2cc(Oc3ccnc(NC(=O)c4ccc(N5C[C@@H](C)N[C@@H](C)C5)cc4F)c3)ccc12 | > 1 | – | –
CNC(=O)c1cccc2cc(Oc3ccnc(NC(=O)c4ccc(N5C[C@@H](C)N[C@@H](C)C5)cc4C)c3)ccc12 | 0.0129 | > 1 | –
CCNC(=O)N1CCCc2cc(Oc3ccnc(NC(=O)c4ccc(N5C[C@@H](C)N[C@@H](C)C5)cc4)c3)ccc21 | 0.132 | 0.118 | –
CNC(=O)c1cccc2cc(Oc3ccnc(NC(=O)c4ccc(N5CCN(CCO)CC5)cc4)c3)ccc12 | 0.0019 | 0.0058 | –
